The source made the active and inactive calls.
Assays:
[1] = M. tuberculosis H37Rv growth inhibitors, H37Rv strain (AID 1626); assay type: functional
[2] = molecular target: T1, Polyadenylate-binding protein 1 (Homo sapiens, UniProt P11940); test: MLLE domain peptide-binding blockers, IC50 – biochemical, fluorescence polarization, FITC-PAM2 peptide, dose response (AID 602259); assay type: functional; settings: read-out: IC50_Mean
[3] = molecular target: T1, Polyadenylate-binding protein 1; test: MLLE binding blockers, Cy5 peptide tracer – biochemical, fluorescence polarization, Cy5-PAM2 peptide, secondary, miRNA deadenylation inhibitor project, dose response (AID 602260); assay type: functional; settings: read-out: IC50_Mean
[4] = molecular target: T2, Mannose-6-phosphate isomerase (Homo sapiens, UniProt P34949); test: MPI inhibition at elevated mannose 6-phosphate – biochemical, fluorescence intensity, high mannose 6-phosphate, primary screen (AID 1220)
T2 sequence (P34949 whole entry): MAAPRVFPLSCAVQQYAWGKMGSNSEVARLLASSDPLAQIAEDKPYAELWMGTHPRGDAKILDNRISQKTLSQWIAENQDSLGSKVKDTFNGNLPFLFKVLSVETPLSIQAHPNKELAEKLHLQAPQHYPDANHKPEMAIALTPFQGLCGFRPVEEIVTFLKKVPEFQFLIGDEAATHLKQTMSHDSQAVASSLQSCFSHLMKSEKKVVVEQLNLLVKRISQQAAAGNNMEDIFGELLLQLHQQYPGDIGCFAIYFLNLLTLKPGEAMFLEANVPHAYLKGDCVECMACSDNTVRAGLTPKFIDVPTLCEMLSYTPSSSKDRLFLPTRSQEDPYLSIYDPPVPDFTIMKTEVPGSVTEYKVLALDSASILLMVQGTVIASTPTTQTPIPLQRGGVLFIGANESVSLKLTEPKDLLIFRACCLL

[5] = Luminescence Cell-Based Dose Response HTS to Identify Inhibitors of 5'UTR Stem-Loop Driven Prion Protein mRNA Translation in H4 Neuroglioblastoma Cells. [Related pubchem assays: 1827 (Project Summary), 1813 (Primary HTS)]; assay type: functional
[6] = test system: BJ; test: BJ-TERT-LT-ST fibroblast viability loss – cell-based, RAS-independent, luminescence, dose response (AID 1935); assay type: functional; settings: Homo sapiens;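 also: BJ fibroblasts immortalized with TERT plus LT and ST oncogenes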
[7] = blockade of melanocortin 4 receptor signaling – cell-based, plate reader, cherry pick, counter-screen for LGR2 antagonist project, dose response (AID 743444); assay type: functional;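 also: transfected HEK 293 cells stimulated with alpha-MSH peptide; potency of inhibitors of the alpha-MSH evoked signal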
[8] = test system: BJ; test: cells; assay type: functional, cell-based; settings: Homo sapiens
[9] = alpha-synuclein stem-loop luciferase translation blockers – H4 neuroglioma cells, luminescence, confirmation (AID 1988); assay type: functional, cell-based
[10] = DRD fibroblast viability loss – cell-based, non-viral oncogenic, luminescence, dose response (AID 1934); assay type: functional; settings: Homo sapiens
[11] = luciferase reporter signal suppression in cells – H4 neuroglioma cells, luminescence, dose response (AID 1990); assay type: functional, cell-based
[12] = A549 cell cytotoxicity, dose response, cytotoxicity control, plate reader, cherry-pick, antagonist series (AID 743412); assay type: functional, cell-based
[13] = test system: BJ; test: BJ-TERT fibroblast viability loss – cell-based, RAS-independent, luminescence, dose response (AID 1933); assay type: functional; settings: Homo sapiens
[14] = blockers of bursicon-stimulated LGR2 cAMP reporter – cell-based, HEK293, CRE-luciferase reporter, cherry pick, set 2, dose response (AID 743343); assay type: functional;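 also: transfected cells were stimulated with diluted bursicon conditioned medium after compound addition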
[15] = viability loss in HEK293 cells – cell-based, plate reader, cherry-picked samples, cytotoxicity control, dose response (AID 743446); assay type: functional
[16] = toxicity toward HepG2 liver cells – cell-based, plate reader, cherry-pick, antagonist series, cytotoxicity control, dose response (AID 743416); assay type: functional
[17] = molecular target: T3, Adenosylmethionine-8-amino-7-oxononanoate aminotransferase (Mycobacterium tuberculosis, UniProt P9WQ81); test: Mycobacterium tuberculosis BioA enzyme inhibitor Measured in Biochemical System Using Plate Reader - 2163-02_Inhibitor_Dose_CherryPick_Activity.; assay type: functional, Mycobacterium tuberculosis UT205
T3 sequence (P9WQ81 whole entry): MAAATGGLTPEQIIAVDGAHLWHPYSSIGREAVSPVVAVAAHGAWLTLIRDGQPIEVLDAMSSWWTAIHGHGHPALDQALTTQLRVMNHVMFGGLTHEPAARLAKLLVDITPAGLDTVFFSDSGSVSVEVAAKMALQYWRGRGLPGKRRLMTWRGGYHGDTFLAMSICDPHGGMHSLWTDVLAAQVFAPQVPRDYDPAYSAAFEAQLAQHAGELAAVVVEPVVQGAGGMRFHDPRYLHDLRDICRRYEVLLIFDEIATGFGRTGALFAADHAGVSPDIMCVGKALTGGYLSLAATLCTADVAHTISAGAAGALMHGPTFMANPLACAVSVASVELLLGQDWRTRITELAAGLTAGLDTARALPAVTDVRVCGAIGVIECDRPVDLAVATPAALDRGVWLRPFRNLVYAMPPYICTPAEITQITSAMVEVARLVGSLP

[18] = Luminescence-based cell-based high throughput dose response assay to identify activators of the DAF-12 from the parasite S. stercoralis (ssDAF-12).; assay type: functional
[19] = molecular target: T4, Oxysterols receptor LXR-beta (Homo sapiens, UniProt P55055); test: LXR agonists, Gal4 luciferase reporter, dose response, counter-screen for ssDAF-12 agonist project, cell-based, luminescence, HEK293, S. stercoralis campaign (AID 720737); assay type: functional; settings: read-out: IC50 (the source's name)
T4 sequence (P55055 whole entry): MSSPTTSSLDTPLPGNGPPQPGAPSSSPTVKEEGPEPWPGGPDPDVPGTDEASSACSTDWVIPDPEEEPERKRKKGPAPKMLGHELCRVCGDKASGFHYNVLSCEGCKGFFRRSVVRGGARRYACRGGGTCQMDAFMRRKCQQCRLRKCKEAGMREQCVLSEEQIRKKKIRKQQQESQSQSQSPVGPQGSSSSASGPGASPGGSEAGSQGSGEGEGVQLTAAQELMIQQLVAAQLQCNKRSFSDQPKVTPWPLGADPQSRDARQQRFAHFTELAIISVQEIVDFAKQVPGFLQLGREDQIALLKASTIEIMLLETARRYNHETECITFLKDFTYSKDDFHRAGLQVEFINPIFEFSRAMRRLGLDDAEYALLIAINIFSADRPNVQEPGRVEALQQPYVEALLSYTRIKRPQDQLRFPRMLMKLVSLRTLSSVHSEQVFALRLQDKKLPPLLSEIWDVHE

[20] = molecular target: Disintegrin and metalloproteinase domain-containing protein 17 (Homo sapiens, UniProt P78536); test: inhibition of ADAM17 substrate cleavage – biochemical, quenched FRET substrate, counter-screen for ADAM10 exosite inhibitor project, dose response (AID 743253)
Chain of Disintegrin and metalloproteinase domain-containing protein 17 (P78536 whole entry, the tested form may be a part): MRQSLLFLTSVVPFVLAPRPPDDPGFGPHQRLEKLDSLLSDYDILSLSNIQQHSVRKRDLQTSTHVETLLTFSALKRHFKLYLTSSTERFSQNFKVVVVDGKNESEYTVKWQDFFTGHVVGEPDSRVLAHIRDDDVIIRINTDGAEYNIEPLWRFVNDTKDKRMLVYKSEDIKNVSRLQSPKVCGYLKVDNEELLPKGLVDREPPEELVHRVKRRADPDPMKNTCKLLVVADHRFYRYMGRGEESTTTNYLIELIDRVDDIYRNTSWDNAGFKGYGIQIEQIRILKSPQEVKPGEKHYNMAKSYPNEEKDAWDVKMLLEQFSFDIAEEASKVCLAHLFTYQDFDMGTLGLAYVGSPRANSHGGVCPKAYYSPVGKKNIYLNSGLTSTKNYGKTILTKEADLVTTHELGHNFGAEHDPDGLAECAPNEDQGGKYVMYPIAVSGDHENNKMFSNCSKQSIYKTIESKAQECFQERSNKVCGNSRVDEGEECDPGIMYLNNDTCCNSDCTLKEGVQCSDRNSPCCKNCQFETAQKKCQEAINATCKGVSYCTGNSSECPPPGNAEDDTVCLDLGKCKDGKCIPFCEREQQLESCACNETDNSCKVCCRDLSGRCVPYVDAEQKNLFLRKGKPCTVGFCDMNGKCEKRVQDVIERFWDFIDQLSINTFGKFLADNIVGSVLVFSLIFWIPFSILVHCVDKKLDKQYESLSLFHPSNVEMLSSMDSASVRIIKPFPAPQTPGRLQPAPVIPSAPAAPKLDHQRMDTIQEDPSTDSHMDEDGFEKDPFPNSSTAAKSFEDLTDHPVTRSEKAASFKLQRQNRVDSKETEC

[21] = test system: H9c2; test: cells; assay type: functional, cell-based; settings: Rattus norvegicus, H9c2, Myocardium;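 also: confirmatory concentration-response retest of ultra-high-throughput screening hits for modulation of myocardial damage; cell death induced by hydrogen peroxide oxidative stress; compound pretreatment for 60 min then peroxide exposure for 2 h; potency is for protecting the cells against peroxide damage rather than for killing them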
[22] = test system: Streptococcus; test: GAS UMAA2166 growth inhibition – luminescence, BacTiterGlo, counter-screen for streptokinase expression inhibitor project, dose response (AID 1915); assay type: functional, organism-based;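 also: potency for reduction of bacterial viability or growth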
[23] = molecular target: T5, Streptokinase A (Streptococcus pyogenes serotype M1, UniProt P10520); test: viability-normalized secreted streptokinase activity reduction – plasminogen activation absorbance, OD405, dose response (AID 1914); assay type: functional, Streptococcus pyogenes M1 GAS;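 also: secreted streptokinase activity via plasminogen activation per viability signal from cell pellet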
T5 sequence (P10520 whole entry): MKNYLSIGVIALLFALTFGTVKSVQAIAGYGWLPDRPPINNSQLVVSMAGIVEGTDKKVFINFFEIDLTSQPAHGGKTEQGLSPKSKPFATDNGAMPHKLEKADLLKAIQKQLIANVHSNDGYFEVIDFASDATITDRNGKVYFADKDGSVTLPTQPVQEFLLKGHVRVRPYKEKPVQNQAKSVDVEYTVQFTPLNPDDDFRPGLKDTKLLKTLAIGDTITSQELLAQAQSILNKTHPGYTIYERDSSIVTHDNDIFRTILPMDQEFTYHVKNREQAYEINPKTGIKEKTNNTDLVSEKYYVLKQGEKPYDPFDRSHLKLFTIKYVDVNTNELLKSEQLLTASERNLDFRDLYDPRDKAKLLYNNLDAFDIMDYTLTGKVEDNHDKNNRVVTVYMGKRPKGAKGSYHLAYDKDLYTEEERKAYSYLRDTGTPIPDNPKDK

[24] = test system: Streptococcus sp. 'group A'; test: Streptococcus pyogenes SK(-)GAS viability under kanamycin – luminescence, BacTiterGlo, confirmation, counter-screen for streptokinase expression inhibitor project, dose response (AID 1900); assay type: functional, organism-based
[25] = IGROV1 cell killing – plate reader, dry powder samples, PAX8 inhibitor project, dose response (AID 743043); assay type: functional, cell-based; settings: IGROV-1
[26] = OVCAR-3 cell viability loss – plate reader, dry powder samples, PAX8 inhibitor project, dose response (AID 743044); assay type: functional, cell-based
[27] = OVCAR8 cell viability loss – plate reader, dry powder samples, PAX8 project, dose response (AID 743197); assay type: functional, cell-based; settings: OVCAR-8
[28] = molecular target: Paired box protein Pax-8 (Homo sapiens, UniProt Q06710); test: PAX8 transcriptional activity inhibition in RMG-I – RMG-I cells, luciferase, cherry-pick, dose response (AID 687027); assay type: functional, cell-based;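 also: luciferase reporter driven by Pax8 target thyroperoxidase promoter measured by SteadyGlo luminescence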
Chain of Paired box protein Pax-8 (Q06710 whole entry): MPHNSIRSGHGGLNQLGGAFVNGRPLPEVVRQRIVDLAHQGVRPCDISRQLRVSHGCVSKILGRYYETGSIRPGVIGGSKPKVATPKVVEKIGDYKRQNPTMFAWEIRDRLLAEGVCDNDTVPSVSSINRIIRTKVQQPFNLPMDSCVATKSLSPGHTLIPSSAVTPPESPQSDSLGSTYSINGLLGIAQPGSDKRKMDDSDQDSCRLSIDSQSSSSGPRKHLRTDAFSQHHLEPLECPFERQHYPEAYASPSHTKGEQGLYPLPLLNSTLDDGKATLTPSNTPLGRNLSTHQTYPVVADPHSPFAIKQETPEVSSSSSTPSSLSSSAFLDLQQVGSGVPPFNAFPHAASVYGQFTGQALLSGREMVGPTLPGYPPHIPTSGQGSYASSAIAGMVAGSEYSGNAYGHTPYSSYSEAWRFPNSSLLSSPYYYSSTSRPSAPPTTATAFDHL

[29] = general cell-killing toxicity readout – plate reader, dry powder samples, cytotoxicity control for PAX8 inhibitor project, dose response (AID 743021); assay type: functional, cell-based

T1 sequence (P11940 whole entry, the tested form may be a part): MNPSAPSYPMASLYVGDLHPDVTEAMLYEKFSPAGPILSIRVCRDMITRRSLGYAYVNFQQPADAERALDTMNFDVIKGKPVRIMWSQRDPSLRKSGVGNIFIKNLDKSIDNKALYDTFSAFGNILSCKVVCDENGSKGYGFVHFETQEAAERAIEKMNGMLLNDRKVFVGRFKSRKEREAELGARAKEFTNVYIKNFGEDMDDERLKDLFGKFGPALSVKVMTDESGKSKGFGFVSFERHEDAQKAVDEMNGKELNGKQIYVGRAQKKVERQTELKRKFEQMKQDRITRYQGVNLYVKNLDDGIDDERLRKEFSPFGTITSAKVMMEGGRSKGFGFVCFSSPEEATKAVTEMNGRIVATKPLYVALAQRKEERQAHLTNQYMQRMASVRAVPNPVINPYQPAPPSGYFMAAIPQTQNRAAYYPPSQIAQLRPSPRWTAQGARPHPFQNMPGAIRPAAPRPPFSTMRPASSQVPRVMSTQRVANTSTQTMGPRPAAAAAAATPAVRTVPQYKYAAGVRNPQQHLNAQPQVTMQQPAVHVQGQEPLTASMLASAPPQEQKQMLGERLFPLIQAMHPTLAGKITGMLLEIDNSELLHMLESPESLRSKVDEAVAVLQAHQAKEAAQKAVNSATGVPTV

Nc1nc2c(s1)COc1ccccc1-2
IC50 [1]: > 100 µM (active)

Nc1cccnc1Sc1cccc(Cl)c1
IC50 [2]: > 66 µM (inactive)
IC50 [3]: > 66 µM (inactive)
IC50 [4]: > 50 µM (not active)

CCOC(=O)c1cnc(Nc2nc3ccccc3o2)nc1C
EC50 [5]: 350 nM (active)
EC50 [6]: > 150 µM (inconclusive)
AC50 [7]: 1.56 µM (active)
EC50 [8]: 17 µM (active)
EC50 [9]: 278 nM (active)
EC50 [10]: 11.7 µM (active)
EC50 [11]: 382 nM (active)
AC50 [12]: 16.9 µM (active)
EC50 [13]: 11.1 µM (inconclusive)
AC50 [14]: 1.11 µM (active)
AC50 [15]: 51.2 µM (active)
AC50 [16]: 5.13 µM (active)

CCOC(=O)c1ccc2c(c1)nc(SCc1cn3ccsc3n1)n2CC
AC50 [17]: 1.16 µM (active)

O=C(CCNc1ccc(Cc2ccncc2)cc1)c1ccc([N+](=O)[O-])cc1
IC50 [18]: > 67.5 µM (inactive)
EC50 [19]: > 67.5 µM (inactive)
IC50 [4]: 15.8 µM (active)

O=C(Nc1nc2ccccc2s1)C1c2ccccc2Oc2ccccc21
IC50 [1]: > 100 µM (active)

O=C1OCCN1C(=O)[C@H]1[C@H](c2ccc([N+](=O)[O-])cc2)C(c2ccc(F)cc2)=NN1c1ccc(Br)cc1
IC50 [20]: > 69.5 µM (inactive)
IC50 [21]: > 79 µM (inactive)

CCOC(=O)c1c(N)sc(C(N)=O)c1C
AC50 [17]: 5.1 µM (active)

CCOC(=O)c1ccc(NC(=O)CCNC(=O)c2ccc([N+](=O)[O-])cc2)cc1
IC50 [1]: > 100 µM (active)

CCOC(=O)/C(C#N)=C/c1cn(CCOc2ccccc2)c2ccccc12
IC50 [18]: > 67.6 µM (inactive)
EC50 [19]: > 67.6 µM (inactive)

Fc1ccc(-c2ccc3c(c2)C2CC3CCN2)cc1 (centres undefined)
AC50 [17]: 1.25 µM (active)

Oc1nc2ccccc2n1C1CCN(C(CCc2ccccc2)c2nnnn2C2CCCCC2)CC1 (centres undefined)
AC50 [7]: 14.1 µM (active)
AC50 [12]: 15.8 µM (active)
AC50 [14]: 20.3 µM (active)
AC50 [15]: 12.8 µM (active)
AC50 [16]: 30.6 µM (active)

COC(=O)c1cccc(NC(=O)c2ccc(S(=O)(=O)N(C)c3ccccc3OC)cc2)c1
AC50 [7]: 7.98 µM (active)
AC50 [12]: 22.7 µM (active)
AC50 [14]: 6.56 µM (active)
AC50 [15]: 35.8 µM (active)
AC50 [16]: 28.9 µM (active)

Oc1c(Cl)cc(Cl)cc1/C=N\c1cc(C(F)(F)F)ccc1N1CCc2ccccc2C1
EC50 [22]: 11.8 µM (active)
IC50 [18]: > 67.5 µM (inactive)
EC50 [19]: > 67.5 µM (inactive)
EC50 [23]: 47.7 µM (active)
EC50 [24]: 4.75 µM (active)

O=C(c1ccc2c(c1)OCO2)N1CC[C@@H]2[C@H](CO)Nc3ccc(-c4ccc(F)cc4)cc3[C@@H]21
AC50 [17]: 1.4 µM (active)

COc1ccc(NC(=O)Nc2ccc3c(c2)C(=O)N([C@H](C)CO)C[C@@H](C)[C@H](CN(C)Cc2ccc(C(F)(F)F)cc2)OCCCC[C@H](C)O3)cc1
AC50 [25]: 23 µM (active)
AC50 [26]: 20.5 µM (active)
AC50 [27]: 33.1 µM (active)
AC50 [28]: 5.71 µM (active)
AC50 [29]: 70 µM (active)

OC[C@@H]1[C@H](c2ccc(-c3ccc(F)cc3)cc2)[C@@H]2CN(CCC(F)(F)F)CCCCN12
AC50 [25]: 30 µM (active)
AC50 [26]: 25.2 µM (active)
AC50 [27]: 47.5 µM (active)
AC50 [28]: 34.9 µM (active)

Cc1nn(-c2ccccc2)c(Cl)c1/C=N/O
IC50 [1]: > 100 µM (active)

From ChEMBL document CHEMBL1201862, “PubChem BioAssay data set” (2004)
